The test deals with CD2F1 mice, L1210 leukemia ip, survival T/C. Description: NCI In Vivo Anticancer Drug Screen. Data for tumor model L1210 Leukemia (intraperitoneal) in CD2F1 (CDF1) mice. The following applies: higher = longer survival. In outline: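 Implant tumor; dose compound or vehicle; measure endpoint in both groups; report treated divided by control.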
Setting [1] is: endpoint: mean survival time, dose: 25.0 mg/kg/injection, schedule: Q04DX003 (ip), vehicle: saline with Tween-80.
[2] abbreviates: endpoint: mean survival time, dose: 50.0 mg/kg/injection, schedule: Q04DX003 (ip), vehicle: saline with Tween-80.
The mark [3] stands for this setting: endpoint: mean survival time, dose: 100.0 mg/kg/injection, schedule: Q01DX009 (ip), vehicle: saline with Tween-80.
The mark [4] stands for this setting: endpoint: mean survival time, dose: 100.0 mg/kg/injection, schedule: Q04DX003 (ip), vehicle: saline with Tween-80.
Setting [5] is: endpoint: mean survival time, dose: 200.0 mg/kg/injection, schedule: Q01DX009 (ip), vehicle: saline with Tween-80.
The mark [6] stands for this setting: endpoint: mean survival time, dose: 400.0 mg/kg/injection, schedule: Q01DX009 (ip), vehicle: saline with Tween-80.
Setting [7] is: endpoint: mean survival time, dose: 200.0 mg/kg/injection, schedule: Q04DX003 (ip), vehicle: saline with Tween-80.
Setting [8] is: endpoint: mean survival time, dose: 400.0 mg/kg/injection, schedule: Q04DX003 (ip), vehicle: saline with Tween-80.
Setting [9] is: endpoint: mean survival time, dose: 100.0 mg/kg/injection, schedule: Q01DX001 (ip), vehicle: saline with Tween-80.
The mark [10] stands for this setting: endpoint: mean survival time, dose: 400.0 mg/kg/injection, schedule: Q01DX001 (ip), vehicle: saline with Tween-80.

Values joined by “and” are separate entries in the source; they are usually repeats but may differ in a detail not shown here. Equal values may be shown once. Inconclusive results and toxic doses are left out.

In the case of `CN(C)Cc1cccc2ccccc12`, the T/C (endpoint: mean survival time, dose: 12.5 mg/kg/injection, schedule: Q01DX009 (ip), vehicle: Klucel (hydroxypropylcellulose) (HPC)) is 109 % of control; the T/C (endpoint: mean survival time, dose: 25.0 mg/kg/injection, schedule: Q01DX009 (ip), vehicle: Klucel (hydroxypropylcellulose) (HPC)) was 109 % of control; the T/C (endpoint: mean survival time, dose: 50.0 mg/kg/injection, schedule: Q01DX009 (ip), vehicle: Klucel (hydroxypropylcellulose) (HPC)) was 97 % of control.

With `Cc1cc(C)c(CCc2c(C)cc(C)cc2C)c(C)c1`, the T/C is 96 % of control under setting [1]; 98 % of control under setting [2]; 89 % of control under setting [3]; 100 % of control under setting [4]; 96 % of control under setting [5]; 93 % of control under setting [6].

Consider `O=C(O)C1CCCCC1c1c2ccc(=O)cc-2oc2cc(O)ccc12` (centres undefined), for which the T/C by setting is: under setting [4], 104 % of control; under setting [7], 92 % of control; under setting [8], 92 % of control.

For the molecule `CCC/C=C/CCOC(=N)C(Cl)(Cl)Cl`, the T/C is, setting by setting: (endpoint: mean survival time, dose: 50.0 mg/kg/injection, schedule: Q01DX009 (ip), vehicle: saline with Tween-80) 92 % of control; under setting [3], 92 % of control; under setting [5], 88 % of control.

In the case of `CC1CCCCN1` (centres undefined), the T/C by setting is: under setting [9], 95 % of control; under setting [10], 95 % of control.

Turning to `CSC(=NC#N)N(C)C`, the T/C was 105 % of control (endpoint: mean survival time, dose: 25.0 mg/kg/injection, schedule: Q04DX003 (ip), vehicle: saline sonified); 95 % of control (endpoint: mean survival time, dose: 50.0 mg/kg/injection, schedule: Q04DX003 (ip), vehicle: saline sonified); 114 % of control under setting [9].

In the case of `CC[C+](C)[B-][N+](C)(C)C`, the T/C is 93 % of control (endpoint: mean survival time, dose: 100.0 mg/kg/injection, schedule: Q01DX001 (ip), vehicle: saline); 98 % of control (endpoint: mean survival time, dose: 200.0 mg/kg/injection, schedule: Q01DX001 (ip), vehicle: saline); 100 % of control (endpoint: mean survival time, dose: 400.0 mg/kg/injection, schedule: Q01DX001 (ip), vehicle: saline).

On to `CC(C)C(O)C(C)[N+](=O)[O-]` (centres undefined), for which the T/C was 86 % of control (endpoint: mean survival time, dose: 25.0 mg/kg/injection, schedule: Q01DX001 (ip), vehicle: saline with Tween-80) and 96 % of control (endpoint: mean survival time, dose: 50.0 mg/kg/injection, schedule: Q01DX001 (ip), vehicle: saline with Tween-80).

`Nc1cccnc1`: the T/C was 92 % of control (endpoint: mean survival time, dose: 5.0 mg/kg/injection, schedule: Q04DX003 (ip), vehicle: saline); 94 % of control (endpoint: mean survival time, dose: 10.0 mg/kg/injection, schedule: Q04DX003 (ip), vehicle: saline); 94 % of control (endpoint: mean survival time, dose: 20.0 mg/kg/injection, schedule: Q04DX003 (ip), vehicle: saline).

`O=C(c1ccc([N+](=O)[O-])cc1)n1ncc2ccccc21`: the T/C is, setting by setting: (endpoint: median survival time, dose: 25.0 mg/kg/injection, schedule: Q04DX002 (ip), vehicle: saline with Tween-80) 100 % of control; (endpoint: median survival time, dose: 50.0 mg/kg/injection, schedule: Q04DX002 (ip), vehicle: saline with Tween-80) 100 % of control; (endpoint: median survival time, dose: 100.0 mg/kg/injection, schedule: Q04DX002 (ip), vehicle: saline with Tween-80) 100 % of control; (endpoint: median survival time, dose: 200.0 mg/kg/injection, schedule: Q04DX002 (ip), vehicle: saline with Tween-80) 100 % of control.

As to `Cc1cccc(=O)n1Cc1ccccc1`, the T/C is, setting by setting: under setting [4], 95 % of control; under setting [7], 95 % of control; under setting [8], 95 % of control.

`Cc1ccc(C2=CSc3ccccc3N2)c(C)c1`: the T/C reads like this: (endpoint: mean survival time, dose: 100.0 mg/kg/injection, schedule: Q04DX002 (ip), vehicle: other) 96 % of control; (endpoint: mean survival time, dose: 200.0 mg/kg/injection, schedule: Q04DX002 (ip), vehicle: other) 100 % of control; (endpoint: mean survival time, dose: 400.0 mg/kg/injection, schedule: Q04DX002 (ip), vehicle: other) 100 % of control.

Regarding `Cc1cccc([N+](=O)[O-])n1`, the T/C reads like this: under setting [1], 109 % of control; under setting [2], 95 % of control; under setting [4], 98 % of control.

As for `CC1C=COC(C)CO1` (centres undefined) (tested in a mixture with another compound), the T/C by setting is: under setting [4], 103 % of control; under setting [7], 97 % of control; under setting [8], 95 % of control.

As to `CC1(C)CC(C)(Br)C(Br)C(=O)C1C(O)(C(F)(F)F)C(F)(F)F` (centres undefined), the T/C reads like this: under setting [4], 100 % of control; under setting [7], 97 % of control; under setting [8], 100 % of control.

As to `COC1OC(CSC#N)C2OC(C)(C)OC12` (centres undefined), the T/C runs as follows: (endpoint: mean survival time, dose: 5.0 mg/kg/injection, schedule: Q01DX001 (ip), vehicle: saline) 97 % of control; (endpoint: mean survival time, dose: 10.0 mg/kg/injection, schedule: Q01DX001 (ip), vehicle: saline) 101 % of control; (endpoint: mean survival time, dose: 20.0 mg/kg/injection, schedule: Q01DX001 (ip), vehicle: saline) 101 % of control; (endpoint: mean survival time, dose: 40.0 mg/kg/injection, schedule: Q01DX001 (ip), vehicle: saline) 101 % of control.

With `CC1(C)OC1(C)C`, the T/C by setting is: (endpoint: mean survival time, dose: 100.0 mg/kg/injection, schedule: Q04DX003 (ip), vehicle: saline) 97 % of control; (endpoint: mean survival time, dose: 200.0 mg/kg/injection, schedule: Q04DX003 (ip), vehicle: saline) 104 % of control; (endpoint: mean survival time, dose: 400.0 mg/kg/injection, schedule: Q04DX003 (ip), vehicle: saline) 97 % of control.

In the case of `CC1(O)Nc2nc3c(ncn3C3OC(CO)C(O)C3O)c(=O)n2C1O` (centres undefined), the T/C reads like this: (endpoint: mean survival time, dose: 12.5 mg/kg/injection, schedule: Q01DX005 (ip), vehicle: water) 106 % of control; (endpoint: mean survival time, dose: 25.0 mg/kg/injection, schedule: Q01DX005 (ip), vehicle: water) 95 % of control; (endpoint: mean survival time, dose: 50.0 mg/kg/injection, schedule: Q01DX005 (ip), vehicle: water) 93 % of control; (endpoint: mean survival time, dose: 100.0 mg/kg/injection, schedule: Q01DX005 (ip), vehicle: water) 101 % of control; (endpoint: mean survival time, dose: 200.0 mg/kg/injection, schedule: Q01DX005 (ip), vehicle: water) 95 % of control.

With `CC1CC(C)(C)OC(C(C)(C)C)O1` (centres undefined), the T/C is 92 % of control (endpoint: mean survival time, dose: 50.0 mg/kg/injection, schedule: Q04DX002 (ip), vehicle: saline); 100 % of control (endpoint: mean survival time, dose: 100.0 mg/kg/injection, schedule: Q04DX002 (ip), vehicle: saline); 103 % of control (endpoint: mean survival time, dose: 200.0 mg/kg/injection, schedule: Q04DX002 (ip), vehicle: saline).

Consider `CC(C)NC(=O)N(c1ccccc1)C(C)C`, for which the T/C reads like this: under setting [3], 102 % of control; under setting [5], 90 % of control.

Turning to `O=C(NC(=S)Nc1ccc(CCO)cc1)c1cccc(Br)c1`, the T/C by setting is: under setting [9], 104 % of control; under setting [3], 97 % of control and 98 % of control; (endpoint: mean survival time, dose: 100.0 mg/kg/injection, schedule: Q04DX002 (ip), vehicle: saline with Tween-80) 88 % of control and 101 % of control; under setting [4], 100 % of control; (endpoint: mean survival time, dose: 200.0 mg/kg/injection, schedule: Q01DX001 (ip), vehicle: saline with Tween-80) 98 % of control; under setting [5], 101 % of control and 108 % of control. The T/C is, setting by setting: (endpoint: mean survival time, dose: 200.0 mg/kg/injection, schedule: Q04DX002 (ip), vehicle: saline with Tween-80) 91 % of control and 92 % of control; under setting [7], 100 % of control; under setting [10], 104 % of control; under setting [6], 86 % of control and 106 % of control; (endpoint: mean survival time, dose: 400.0 mg/kg/injection, schedule: Q04DX002 (ip), vehicle: saline with Tween-80) 95 % of control; under setting [8], 93 % of control.

`O=P(Oc1ccccc1)(Oc1ccccc1)N(CCCl)CCCl`: the T/C (endpoint: mean survival time, dose: 12.5 mg/kg/injection, schedule: Q01DX009 (ip), vehicle: water) is 101 % of control; the T/C (endpoint: mean survival time, dose: 25.0 mg/kg/injection, schedule: Q01DX009 (ip), vehicle: water) is 100 % of control and 108 % of control; the T/C (endpoint: mean survival time, dose: 31.25 mg/kg/injection, schedule: Q01DX001 (ip), vehicle: distilled water + Tween-80) was 104 % of control; the T/C (endpoint: mean survival time, dose: 50.0 mg/kg/injection, schedule: Q01DX009 (ip), vehicle: water) is 104 % of control; the T/C (endpoint: mean survival time, dose: 62.5 mg/kg/injection, schedule: Q01DX001 (ip), vehicle: distilled water + Tween-80) is 107 % of control; the T/C (endpoint: mean survival time, dose: 100.0 mg/kg/injection, schedule: Q01DX009 (ip), vehicle: water) is 161 % of control. The T/C (endpoint: mean survival time, dose: 125.0 mg/kg/injection, schedule: Q01DX001 (ip), vehicle: distilled water + Tween-80) is 102 % of control and the T/C (endpoint: mean survival time, dose: 250.0 mg/kg/injection, schedule: Q01DX001 (ip), vehicle: distilled water + Tween-80) was 119 % of control.

These data come from PubChem BioAssay AID256 (DTP/NCI, 2004).
